Experimental data reported in patent US8791098B2 (priority 2008, dated 2014).
≈ marks a conversion by molar mass, not a printed value. Like-named read-outs stand apart in the source and are kept apart here.

Legend:
[1] = tested on: PtK2 cells; assay type: cell-based; conditions: for concentration at which effects on microtubules and spindle morphologies appear / concentration for complete de-polymerization (disappearance) of interphase microtubules: 24 hours incubation
Method: Cell staining: Ptk2 cells were seeded on round glass coverslips (13 mm in diameter) in 4-well plates. Cells were incubated with the drugs to the given times as indicated for each experiment. For staining the microtubules and the nuclei, cells were firstly fixed with cold (−20° C.) acetone/methanol (1:1) for 10 min. For labelling the microtubules, cells were incubated with a primary monoclonal antibody against α-tubulin (1:500 Sigam) for 45 min at 37° C., followed by a secondary anti-mouse IgG antibody conjugated with Alexa488 (1:2000; Molecular probes) under the same incubations conditions. The nuclei were stained with DAPI (1 μg/ml in PBS). The cells were washed with phosphate buffer saline (PBS) between incubations. Coverslips were mounted by using Prolong Antifade (Molecular Probes) and imaged through a fluorescence microscope (LSM-Zeiss) with appropriate filter set.
Tubulysin A and D are known to induce de-polymerization of the interphase microtubules of mammalian cells and additionally induce a multi-polar spindle pool in mitotic cells (Khalil, M. et al., Chembiochem. 7, 678-683 (2006); Sasse, F., Menche, D. Nat. Chem. Biol. 3, 87-89 (2007)). Here the effect of pre-tubulysin treatment on the morphologies of microtubules and microtubules related structures in PtK2 cells was tested. PtK2 cells were seeded onto glass cover clips in 4 well plates and cultivated for 24 or 48 hours under growth conditions. The cells were then treated with different concentrations of tubulysin A, tubulysin D, pre-tubulysin-816 or pre-tubulysin-827. The control cells were treated only with equivalent amount of methanol (solvent). The cells were thin incubated for further 24 hours before they were fixed as described under the methods section. Fixed cells were then washed with PBS and finally labeled with anti-α-tubulin primary antibodies followed by anti-mouse-alexa-488 secondary antibodies to visualize the microtubules. The nuclei were stained with DAPI.

[2] = tested on: HL-60 cells; assay: cells; conditions: Homo sapiens
Method: A given number of cells were cultivated in 96-well plates with serial dilutions of the drugs up to 100 ng/ml. Tubulysin A is used as a positive control, whereas methanol is used as a negative control. After 5 days of incubation the metabolic activities of the cells were measured using MTT-assay as described under the methods section.
The effect of pre-tubulysin 816 and 827 was tested with regard to the growth of other cell lines, including the mouse connective tissues fibroblast L929, the human lung carcinoma cell line A549, the human colon adenocarcinoma cell line SW-480, and the human histiocytic lymphoma cell line U937, in addition to the human myeloid leukemia cell line HL-60.

[3] = molecular target: T1, purified microtubules protein isolated from porcine brain (Sus scrofa, UniProt P02550+P02554); assay: Turbidometric microtubules protein polymerization assay; assay type: biochemical; conditions: 10 μM microtubules protein, 10 min, 37° C.
T1 construct: Microtubules proteins were purified from porcine brain; from tissue; host or cells: porcine brain
Method: Tubulin purification: Microtubules proteins were purified from porcine brain by using standard procedures that includes three cycles of temperature-dependent polymerization and de-polymerization, as described elsewhere.
Polymerisation assay: Tubulin polymerisation was monitored by using turbidometry assay (lit). Samples (200 μl, 10 μM tubulin) in PEM polymerisation buffer (0.1 M PIPES, pH 6.6, 1 mM EGTA, 1 mM MgSO4, and 1 mM GTP), were rapidly warmed to 37° C. in a water-jacketed cuvette holder of a diode array photometer (Beckman spectrophotometer DU 7500). Absorbance at 350 nm where monitored in the absence and the presence of the drugs.
10 μM of purified microtubles protein were mixed on ice with 0, 1.7, 3.2, and 6.7 μM pre-tubulysin-816. Microtubules protein polymerization was then monitored for 10 min at 350 nm and 37° C. […] 1.7 μM of the drug was able to inhibit the polymerization of the protein by approximately 20%. Increase the concentration of the drug to 6.7 μM induced an inhibition of the polymerization to 60%.
Therefore, we were interested to test its activity on the polymerization of microtubules in vitro. We first studied its polymerization inhibition potential on microtubules polymerization. 10 μM of purified microtubules protein were mixed on ice with 0, 1, 1.7 and 3.4 μM pre-tubulysin-827 on ice. Microtubules protein polymerization was then monitored for 10 min at 350 nm and 37° C.

[4] = tested on: A549; assay: Anti-proliferation MTT assay (Example 2, Table 1); assay type: cell-based; conditions: A549 human lung carcinoma
[5] = tested on: KB.3.1 cells; assay: Cell cycle analysis (FACS, DNA content); assay type: cell-based, human
Method: Cell cycle analysis: approximately 10^6 cells were harvested by centrifugation and fixed in −20° C. cold 80% methanol. After 30 min of incubation on ice, the cells were washed with PBS and then with saponin containing PBS (0.1%). For DNA staining cells were incubated for 30 min at 37° C. in a solution containing 20 μg ml^−1 Propidium iodide, and 1 mg ml^−1 RNase. Samples were analysed by FacScan (Becton Dickinson).
All drugs that target the microtubules are known to induce a cell cycle arrest in G2M phase in different cell lines. The ability of pre-tubulysin-816 and -827 on the progress of cell cycle in the cervices carcinoma cell line KB.3.1 was tested. Cells were treated with different concentrations of the drugs and incubated for 24 hours under cultivation conditions. After the incubation time was ended, cells were collected by centrifugation, fixed and the DNA was labeled as described in the method sections. The DNA content of the cells was detected via FACS analysis. The resulting data were calculated using Dean-Jett-Fox algorithm.

T1 sequence (P02554 whole entry): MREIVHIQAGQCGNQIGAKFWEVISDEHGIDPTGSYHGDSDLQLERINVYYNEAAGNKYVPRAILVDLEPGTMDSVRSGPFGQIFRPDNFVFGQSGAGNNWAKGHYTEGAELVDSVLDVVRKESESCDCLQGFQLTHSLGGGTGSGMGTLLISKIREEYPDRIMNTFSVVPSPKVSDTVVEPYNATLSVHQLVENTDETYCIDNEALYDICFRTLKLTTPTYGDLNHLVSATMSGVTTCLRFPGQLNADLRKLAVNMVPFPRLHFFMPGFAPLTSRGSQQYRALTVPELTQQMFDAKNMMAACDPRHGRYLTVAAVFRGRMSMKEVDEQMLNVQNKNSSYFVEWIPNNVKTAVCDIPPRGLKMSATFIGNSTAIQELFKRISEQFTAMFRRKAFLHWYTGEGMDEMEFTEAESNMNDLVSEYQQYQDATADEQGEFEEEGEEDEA
T1 sequence (P02550 whole entry): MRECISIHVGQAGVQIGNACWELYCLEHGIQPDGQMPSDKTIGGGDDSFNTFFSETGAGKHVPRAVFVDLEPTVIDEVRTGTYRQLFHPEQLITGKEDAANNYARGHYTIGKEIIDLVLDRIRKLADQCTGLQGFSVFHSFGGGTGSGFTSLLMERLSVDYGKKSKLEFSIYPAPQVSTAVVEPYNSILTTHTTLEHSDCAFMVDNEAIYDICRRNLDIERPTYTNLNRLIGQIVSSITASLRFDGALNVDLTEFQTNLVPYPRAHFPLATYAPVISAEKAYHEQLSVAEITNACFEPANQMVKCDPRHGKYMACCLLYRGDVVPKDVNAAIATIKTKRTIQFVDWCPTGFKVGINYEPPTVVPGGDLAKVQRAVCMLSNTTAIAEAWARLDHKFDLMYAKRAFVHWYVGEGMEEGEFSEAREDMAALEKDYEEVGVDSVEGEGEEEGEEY

Compound | concentration at which effects on microtubules and spindle morphologies appear [1] [ng/ml] | concentration for complete de-polymerization (disappearance) of interphase microtubules [1] | concentration for complete de-polymerization (disappearance) of interphase microtubules ([1]; listed as Pre-tubulysin-816) [µg/mL] | effect on the interphase microtubules ([1]; concentrations up to 250 ng/ml, 24 h) | IC50 ([2]; HL-60, 120 h) [ng/mL] | IC50 ([2]; HL-60, read-out: IC50 value) [ng/mL] | inhibition at 1.7 µM ([3]; 1.7 μM drug) [%] | inhibition at 6.7 µM ([3]; 6.7 μM drug, printed as inhibition 'to 60%') [%] | IC50 [4] [ng/mL] | G2M cell cycle arrest ([5]; KB.3.1 cells, 24 hours) | concentration for complete de-polymerization (disappearance) of interphase microtubules ([1]; listed as Pre-tubulysin-827) [µg/mL] | inhibition at 1 µM ([3]; 1 μM drug) [%] | inhibition at 3.4 µM ([3]; 3.4 μM drug) [%] | cells accumulated in the G2M-phase ([5]; KB3.1 cells, 100 ng/ml, 24 h (control approximately 30%)) [%]
CC[C@H](C)[C@H](NC(=O)[C@H]1CCCCN1C)C(=O)N(C)[C@H](CCc1nc(C(=O)N[C@H](CCC(=O)O)Cc2ccccc2)cs1)C(C)C [pre-tubulysin-816, N-desmethyl-pretubulysin] | ≥ 500 | around 5 μg/ml | 5 | did not show any clear effect | 0.15 (≈ 0.229 nM) | 0.15 (≈ 0.229 nM) | ~20 | 60 | 95 (≈ 145 nM) | induced an accumulation of the cells in the G2M-phase | – | – | – | –
CC[C@H](C)[C@H](NC(=O)[C@H]1CCCCN1C)C(=O)N(C)[C@H](CCc1nc(C(=O)N[C@@H](Cc2ccccc2)C[C@H](C)C(=O)O)cs1)C(C)C [pre-tubulysin-827, pretubulysin] | 50 | ≥ 1 µg/mL | – | – | 0.017 (≈ 0.0254 nM) | 0.017 (≈ 0.0254 nM) | – | – | 9 (≈ 13.4 nM) | – | 1 | ~45 | > 85 | 65
